Test results as given in patent publication US12241097B2, “Compositions and methods for adoptive cell therapy for cancer” (MEMORIAL SLOAN KETTERING CANCER CENTER, priority 2017, dated 2025).

Columns and labels:
[1] = test system: Jurkat (T cell); assay: in vitro cytotoxicity, Jurkat; assay type: cell-based, human; conditions: T cell lines (Jurkat)
[2] = test system: primary T-cells; assay: in vitro cytotoxicity, primary T cells; assay type: cell-based, human
[3] = test system: PC9 cells; assay: PC9 viability, CellTitre-Glo, 48 hours; assay type: cell-based, human
Protocol: FIG. 14 provides exemplary data showing that Human T cells, but not cancer cells, are resistant to Erlotinib. (A) Human Jurkat T cells (red circle) and human non-small cell lung carcinoma cell lines PC9 (black square) and HCC827 (blue triangle) were treated with increasing concentrations of the receptor tyrosine kinase inhibitor Erlotinib. […] Cell viability was measured at 48 hours by CellTitre-Glo® luminescence.
FIG. 14 provides exemplary data showing that Human T cells, but not cancer cells, are resistant to Erlotinib. Human Jurkat T cells, primary T cells and human non-small cell lung carcinoma cell lines PC9 and HCC827 were treated with increasing concentrations of the receptor tyrosine kinase inhibitor Erlotinib. […] PC9 cells were incubated in the presence of Erlotinib, P-Erlotinib, or P-Erlotinib in the presence of purified CPG2. Cell viability was measured at 48 hours by CellTitre-Glo® luminescence.

[4] = test system: HCC827; assay: HCC827 viability with Erlotinib; assay type: cell-based, human
Protocol: Human Jurkat T cells, primary T cells and human non-small cell lung carcinoma cell lines PC9 and HCC827 were treated with increasing concentrations of the receptor tyrosine kinase inhibitor Erlotinib. […] Cell viability was measured at 48 hours by CellTitre-Glo® luminescence.

[5] = test system: Jurkat T cells; assay: Jurkat viability with prodrug and supernatant from CPG2-secreting HEK293T cells; assay type: cell-based, human; conditions: for cell viability with CPG2 supernatant: 48 hours, control media did not
Protocol: (§1) The in vitro cytotoxicity of AMS (structure 1c) and its prodrug variant (structure 1a) was tested against a variety of cell lines using a CellTitre Glo® assay (Promega, Madison, WI). […] Moreover, co-treatment with the prodrug and supernatant from CPG2-transfected HEK293T cells (see Example 3) led to cytotoxicity approaching that of the free drug (50 nM), consistent with CPG2-mediated cleavage of the prodrug to release the active parent drug. […] In contrast, AMS prodrug 1a was not activated by HEK293T cells expressing CPG intracellularly, which likely attributed to poor cell-penetrance of the prodrug due to the free bis-anionic gluatamate moiety.
Jurkat T cells were exposed to increasing concentrations of AMS (circle) or Pro-AMS with media alone (triangle) or supernatant from CPG2-secreting HEK293T cells (square). Cell viability was measured at 48 hours by CellTitre-Glo® luminescence assay.
Jurkat T cells were exposed to increasing concentrations of ZD2767P with media alone (triangle) or supernatant from CPG2-secreting HEK293T cells (square). Cell viability was measured at 48 hours by CellTitre-Glo® luminescence assay.

[6] = test system: HEK293T cells expressing CPG2; assay: viability of HEK293T cells expressing CPG2 variants exposed to prodrug; assay type: cell-based, human
Protocol: as §1
Expression of CPG2 without a signal peptide (CPG2nosigp) was employed as a control. HEK293t cells stably transfected with CPG2 variants were exposed to P-AMS ([…]) for 48 hours and analyzed by bright field microscopy (FIG. 9A). Cells were exposed to varying concentrations of P-AMS and cell viability was analyzed at 48 hr post treatment (FIG. 9B).
(§2) The HA epitope tag permitted staining of surface-level CPG2 in cells expressing either the secreted or transmembrane forms of the enzyme (FIG. 22D). […] Cell viability was measured at 48 hours by CellTitre-Glo® luminescence.

[7] = test system: Jurkat T cells; assay: Jurkat viability with P-AMS and purified recombinant CPG2; assay type: cell-based, human; conditions: Jurkat viability at 48 hours
Protocol: FIG. 4 provides exemplary data showing activation of P-AMS (see FIG. 2) by recombinant CPG2 expressed and purified from E. coli. (A) Human Jurkat T cells were incubated with or without P-AMS in the presence of increasing concentration of purified CPG2. Cell viability was measured at 48 hours by CellTitre-Glo luminescence. (B) Recombinant CPG2 was exposed to various concentrations of glutamated AMS prodrug. Following incubation at 37° C. (0.5, 1, 2, and 4 hr.), the reaction was combined with Amplex® Red (converts free glutamate to a fluorescent species) and fluorescent emission was analyzed using a fluorescence multiwell plate scanner.
The CPG2-pET151 vector was transformed into BL21 star E. coli cells and induced with IPTG. Bacteria were homogenized in a French Press and purified by affinity chromatography over Ni++ beads using standard protocols. Imidazole was exchanged via PBS dialysis and protein was purified via desalting spin columns. The expressed and purified CPG2 was assayed to confirm that the active enzyme was a potent converter of glutamated prodrugs. […] Pro-AMS was activated by recombinant CPG2 in vitro. Human Jurkat T cells were incubated with or without P-AMS in the presence of increasing concentration of purified CPG2. Cell viability of the Jurkat cells was measured at 48 hours by CellTitre-Glo® luminescence. […]

[8] = test system: SET2 cells; assay: SET2 viability with prodrug and supernatant from CPG2-secreting HEK293t cells; assay type: cell-based; conditions: comparable to AMS at around 100 nM
Protocol: SET2 cells were exposed to increasing concentrations of AMS (square) or glut-AMS with media alone (− control, triangle) or supernatant from CPG2-secreting HEK293t cells (circle). Cell viability was measured by CellTitre-Glo® luminescence assay.
as §2

[9] = test system: lung adenocarcinoma cells (HCC827); assay: coculture of 293t^CPGTM cells with HCC827 plus erlotinib prodrug; assay type: cell-based; conditions: 120 hr, flow cytometry
Protocol: FIG. 15 provides exemplary data showing the pro-drug activity of 293T cells expressing transmembrane CPG2. GFP+293t^CPGTM cells were co-cultured with lung adenocarcinoma cells (HCC827) at various ratios (293t^CPGTM:HCC827) and the erlotinib prodrug (p-erlotinib) was added. (A) Cells were analyzed at 120 hour by flow cytometry and % GFP was calculated. (B) Ratio of 293t^CPGTM cells to HCC827 cells was calculated for each cell ratio.
The retroviral constructs encoding the anti-CD19 CAR and transmembrane CPG2 enzyme described above were transduced into 293T cells to test the conversion activity of transmembrane CPG2 for an Erlotinib prodrug. GFP+293t^CPGTM cells were co-cultured with lung adenocarcinoma cells (HCC827) at various ratios (293t^CPGTM:HCC827) and the erlotinib prodrug (p-erlotinib) was added. Cells were analyzed at 120 hr. by flow cytometry (FIG. 15A) and the percentage of GFP cells and the ratio of 293t^CPGTM cells to HCC827 cells was calculated for each cell ratio (FIG. 15B).

[10] = test system: HEK293T; assay: in vitro cytotoxicity, HEK293T; assay type: cell-based, human; conditions: HEK293-t; unit inferred; read-out: IC50 (cell selectivity data), ceph-AMS
[11] = test system: Skov-3; assay: cell viability, Skov-3; assay type: cell-based, human
[12] = test system: myeloid leukemia cell line SET2; assay: cytotoxicity, SET2 (CellTitre Glo); assay type: cell-based; conditions: unit inferred, read-out: IC50 (cell selectivity data), ceph-AMS
[13] = test system: SET2 cells; assay: SET2 viability with ceph-AMS and Beta-lactamase supernatant; assay type: cell-based; conditions: comparable to AMS at around 100 nM

Structure (SMILES): C#Cc1cccc(Nc2ncnc3cc(OCCOC)c(OCCOC)cc23)c1 [Erlotinib, reference compound]
- response to increasing concentrations [1]: resistance
- response to increasing concentrations ([2]; primary T cells): resistance
- cell death with increasing concentrations ([3]; PC9): significant cell death
- cell death with increasing concentrations [4]: significant cell death

Structure (SMILES): NS(=O)(=O)OC[C@H]1O[C@@H](n2cnc3c(NC(=O)N[C@@H](CCC(=O)O)C(=O)O)ncnc32)[C@H](O)[C@@H]1O [P-AMS, ((9-((2R,3R,4S,5R)-3,4-dihydroxy-5-((sulfamoyloxy)methyl)tetrahydrofuran-2-yl)-9H-purin-6-yl)carbamoyl)-L-glutamic Acid]
- cell viability with CPG2 supernatant [5]: significant decrease in cell viability
- IC50 ([5]; Homo sapiens, with CPG2 supernatant, read-out: IC50, co-treatment with supernatant from CPG2-transfected HEK293T cells): 50 nM
- cell death of HEK293T cells expressing CPG2 ([6]; cell-secreted and transmembrane CPG2, 48 hours, control construct did not): significant cell death
- activation by HEK293T cells expressing CPG intracellularly ([6]; intracellular CPG): not activated
- activation by recombinant CPG2 [7]: activated
- cell viability with CPG2 supernatant [8]: significant decrease in cell viability

Structure (SMILES): C#Cc1cccc(N(Cc2ccc(NC(=O)N[C@@H](CCC(=O)O)C(=O)O)cc2)c2ncnc3cc(OCCOC)c(OCCOC)cc23)c1 [P-Erlotinib]
- toxicity of prodrug alone ([3]; PC9, 1 μM, 48 hours): no toxicity
- activity of prodrug cleaved by purified CPG2 ([3]; PC9, with purified CPG2): comparable activity to the active drug
- killing after conversion by transmembrane CPG2 [9]: kills the target cancer cell

Structure (SMILES): O=C(O)CC[C@H](NC(=O)Oc1ccc(N(CCI)CCI)cc1)C(=O)O [ZD2767P, reference compound]
- cell viability with CPG2 supernatant [5]: significant decrease in cell viability

Structure (SMILES): Nc1ncnc2c1ncn2[C@@H]1O[C@H](COS(=O)(=O)NCC2=C(C(=O)O)N3C(=O)[C@@H](NC(=O)Cc4cccs4)[C@H]3SC2)[C@@H](O)[C@H]1O [ceph-AMS]
- IC50 [10]: 2000 nM
- IC50 ([2]; Human T cell, unit inferred, read-out: IC50 (cell selectivity data), ceph-AMS): > 1250 nM
- Selective Index [11]: 3.6
- IC50 ([11]; unit inferred, read-out: IC50 (cell selectivity data), ceph-AMS): > 1250 nM
- IC50 [12]: ~2200 nM
- cell viability with Beta-lactamase supernatant [13]: significant decrease in cell viability
